# Patent US9765085B2, “SHIP1 modulators and methods related thereto” (Aquinox Pharmaceuticals (Canada) Inc., priority 2013, dated 2017)
# Molecular target: T1, His-hSHIP1 enzyme (Homo sapiens, UniProt Q92835)
# T1 construct: His
# T1 sequence (Q92835 1-1189): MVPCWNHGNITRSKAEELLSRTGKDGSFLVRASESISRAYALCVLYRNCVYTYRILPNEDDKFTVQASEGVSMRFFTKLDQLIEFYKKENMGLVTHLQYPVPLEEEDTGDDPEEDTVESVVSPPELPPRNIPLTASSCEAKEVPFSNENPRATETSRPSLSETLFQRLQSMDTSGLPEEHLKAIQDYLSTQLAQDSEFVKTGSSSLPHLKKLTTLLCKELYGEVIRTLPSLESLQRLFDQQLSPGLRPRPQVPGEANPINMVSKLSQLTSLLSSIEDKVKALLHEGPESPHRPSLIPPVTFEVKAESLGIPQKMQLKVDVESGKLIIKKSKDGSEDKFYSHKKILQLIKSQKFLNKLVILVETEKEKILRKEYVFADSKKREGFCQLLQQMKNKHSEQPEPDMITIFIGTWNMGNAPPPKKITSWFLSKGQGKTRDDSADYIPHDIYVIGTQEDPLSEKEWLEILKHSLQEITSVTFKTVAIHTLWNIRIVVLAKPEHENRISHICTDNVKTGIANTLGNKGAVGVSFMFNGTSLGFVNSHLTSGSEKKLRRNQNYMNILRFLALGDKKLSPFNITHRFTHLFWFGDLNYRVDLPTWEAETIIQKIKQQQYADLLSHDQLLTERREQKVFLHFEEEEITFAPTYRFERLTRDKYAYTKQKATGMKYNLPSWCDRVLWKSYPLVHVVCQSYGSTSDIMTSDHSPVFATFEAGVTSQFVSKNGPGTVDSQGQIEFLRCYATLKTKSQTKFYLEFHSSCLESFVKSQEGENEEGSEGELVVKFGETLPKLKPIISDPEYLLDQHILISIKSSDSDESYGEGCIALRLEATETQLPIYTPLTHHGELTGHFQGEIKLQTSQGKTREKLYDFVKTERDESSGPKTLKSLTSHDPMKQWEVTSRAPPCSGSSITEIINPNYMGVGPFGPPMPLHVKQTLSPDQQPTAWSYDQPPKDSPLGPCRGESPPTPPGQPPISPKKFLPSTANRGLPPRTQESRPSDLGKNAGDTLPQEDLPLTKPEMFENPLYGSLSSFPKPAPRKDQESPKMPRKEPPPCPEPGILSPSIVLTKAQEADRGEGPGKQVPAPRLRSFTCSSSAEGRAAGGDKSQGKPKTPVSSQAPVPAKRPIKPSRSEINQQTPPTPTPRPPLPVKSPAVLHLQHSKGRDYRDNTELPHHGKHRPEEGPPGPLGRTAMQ
# Assay: His-hSHIP1 activity (phosphatase assay, IP4 substrate, Biomol Green)
# Assay type: biochemical
# Design: key: +++: higher than reference or reference - 15%; ++: reference - 16% to reference - 30%; +: reference - 31% or lower; −: inhibitor
# Settings: ratio of initial velocities (IP4 25/IP4 250 μM final) compared with a reference SHIP1 activator; 37° C.
# Protocol: Test compounds are dissolved in 95% ethanol to form stock solutions. Before screening, the stock solutions are diluted with Phosphatase Assay Buffer (20 mM Tris-HCL, 10 mM MgCl2 pH 7.5, 0.02% Tween 20) to form working assay solutions that contain 10% ethanol. The assay is carried out on 96-well microtiter plates using a modified procedure of that reported by Ong et al., Blood 110, 1942-1949, 2007 and Yang et al., Org Lett 7, 1073-1076, 2005, both of which references are incorporated herein by reference in their entirety.
# A master mix is prepared that contains 50 μL of His-hSHIP1 enzyme (0.4-1.6 ng/μL final), 25 μL of the substrate, IP4 (25 or 250 μM final), and 50 μL of test compound in 3.3% ethanol ([…]). Control blanks are also prepared by replacing His-hSHIP1 enzyme, IP4, or test compounds with Phosphate Assay Buffer. […] Each reaction component is preincubated at 37° C. for 30 min before adding to a 96-well microtiter plate. The master mix is then incubated at 37° C. At time 0, 20, 25 and 30 min, 25 μL of the master mix is removed and transferred to a new 96-well microtiter plate, to which 100 μL of Biomol Green Reagent is added to stop the reaction. After incubating the mixture for 20 min at room temperature for color development, the absorbance is read with SpectraMax Plus 96-well plate reader at a wavelength of 650 nm. Phosphate released is plotted against time to calculate the initial velocities (i.e., slope of the graph) at each IP4 concentration. The initial velocities are baseline corrected and the ratio of initial velocities (IP425/IP4250) is calculated and used to rate the test compounds.
# The compound numbers in Table 2 correspond to the compound numbers in Table 1 above. Scoring of the compound is expressed as follows: […]
row,Scoring (Initial Velocity Ratio),SMILES
1,+,"CC1(C)CCC2=C1CC[C@H]([C@@]1(C)CC[C@H](O)C[C@@H]1CO)[C@H]2CNC(=O)c1cccnc1 [compound 1, N-(((4R,5S)-5-((1R,2S,4S)-4-hydroxy-2-(hydroxymethyl)-1-methylcyclohexyl)-1,1-dimethyl-2,3,4,5,6,7-hexahydro-1H-inden-4-yl)methyl)nicotinamide]"
2,++,"CN/C(=N\C#N)NC[C@H]1C2=C(CC[C@@H]1[C@@]1(C)CC[C@H](O)C[C@@H]1CO)C(C)(C)CC2 [compound 3, (E)-2-cyano-1-(((4R,5S)-5-((1R,2S,4S)-4-hydroxy-2-(hydroxymethyl)-1-methylcyclohexyl)-1,1-dimethyl-2,3,4,5,6,7-hexahydro-1H-inden-4-yl)methyl)-3-methylguanidine]"
3,++,"C[C@]1([C@H]2CC[C@]3(C)c4ncccc4C[C@H]3[C@@H]2CN)CC[C@H](O)C[C@@H]1CO [compound 9, (1S,3S,4R)-4-((5aS,6R,7S,9aS)-6-(aminomethyl)-9a-methyl-5a,6,7,8,9,9a-hexahydro-5H-indeno[1,2-b]pyridin-7-yl)-3-(hydroxymethyl)-4-methylcyclohexanol]"
4,++,"C[C@]1([C@H]2CC[C@]3(C)C(c4ccccc4)=CC[C@H]3[C@@H]2CN)CC[C@H](O)C[C@@H]1CO.Cl [compound 10, (1S,3S,4R)-4-((3aS,6S,7R,7aS)-7-(aminomethyl)-3a-methyl-3-phenyl-3a,4,5,6,7,7a-hexahydro-1H-inden-6-yl)-3-(hydroxymethyl)-4-methylcyclohexanol hydrochloride]"
5,−,"CC(=O)O.CC1(C2CCC3(C)C(CCC3(O)c3ccccc3)C2CN)CCC(O)CC1CO [compound 11, (1S,3aS,4R,5S,7aS)-4-(aminomethyl)-5-((1R,2S,4S)-4-hydroxy-2-(hydroxymethyl)-1-methylcyclohexyl)-7a-methyl-1-phenyloctahydro-1H-inden-1-ol acetate]"
6,+++,"C[C@]1([C@H]2CC[C@@]3(C)[C@@H](CC[C@@]3(O)c3ccco3)[C@@H]2CN)CC[C@H](O)C[C@@H]1CO [compound 12, (1S,3aS,4R,5S,7aS)-4-(aminomethyl)-1-(furan-2-yl)-5-((1R,2S,4S)-4-hydroxy-2-(hydroxymethyl)-1-methylcyclohexyl)-7a-methyloctahydro-1H-inden-1-ol]"
7,+,"C[C@]1([C@H]2CC[C@]3(C)C(c4ccco4)=CC[C@H]3[C@@H]2CN)CC[C@H](O)C[C@@H]1CO [compound 13, (1S,3S,4R)-4-((3aS,6S,7R,7aS)-7-(aminomethyl)-3-(furan-2-yl)-3a-methyl-3a,4,5,6,7,7a-hexahydro-1H-inden-6-yl)-3-(hydroxymethyl)-4-methylcyclohexanol]"
8,+,"C[C@]1([C@H]2CC[C@]3(C)C(c4cccs4)=CC[C@H]3[C@@H]2CN)CC[C@H](O)C[C@@H]1CO [compound 16, (1S,3S,4R)-4-((3aS,6S,7R,7aS)-7-(aminomethyl)-3a-methyl-3-(thiophen-2-yl)-3a,4,5,6,7,7a-hexahydro-1H-inden-6-yl)-3-(hydroxymethyl)-4-methylcyclohexanol]"
9,−,"C[C@]1([C@H]2CC[C@@]3(C)[C@@H](CC[C@@]3(O)c3ccccn3)[C@@H]2CN)CC[C@H](O)C[C@@H]1CO [compound 17, (1S,3aS,4R,5S,7aS)-4-(aminomethyl)-5-((1R,2S,4S)-4-hydroxy-2-(hydroxymethyl)-1-methylcyclohexyl)-7a-methyl-1-(pyridin-2-yl)octahydro-1H-inden-1-ol]"
10,++,"C[C@]1([C@H]2CCC3=C(C[C@@H](O)[C@@]3(C)c3ccccc3)[C@@H]2CN)CC[C@H](O)C[C@@H]1CO [compound 19, (1S,2R,4R,5S)-4-(aminomethyl)-5-((1R,2S,4S)-4-hydroxy-2-(hydroxymethyl)-1-methylcyclohexyl)-1-methyl-1-phenyl-2,3,4,5,6,7-hexahydro-1H-inden-2-ol]"
11,++,"C[C@]1([C@H]2CC[C@@]3(C)[C@@H](CC[C@@]3(O)c3nccs3)[C@@H]2CN)CC[C@H](O)C[C@@H]1CO [compound 20, (1S,3aS,4R,5S,7aS)-4-(aminomethyl)-5-((1R,2S,4S)-4-hydroxy-2-(hydroxymethyl)-1-methylcyclohexyl)-7a-methyl-1-(thiazol-2-yl)octahydro-1H-inden-1-ol]"
12,+,"C=C1CC[C@H]2[C@H](CO)[C@@H]([C@@]3(C)Cc4cn[nH]c4C[C@@H]3CO)CC[C@]12C [compound 21, ((3aS,4R,5S,7aS)-5-((5R,6S)-6-(hydroxymethyl)-5-methyl-4,5,6,7-tetrahydro-1H-indazol-5-yl)-7a-methyl-1-methyleneoctahydro-1H-inden-4-yl)methanol]"
13,++,"C=C1CC[C@H]2[C@H](CO)[C@@H]([C@@]3(C)Cc4conc4C[C@@H]3CO)CC[C@]12C [compound 22, ((3aS,4R,5S,7aS)-5-((5R,6S)-6-(hydroxymethyl)-5-methyl-4,5,6,7-tetrahydrobenzo[c]isoxazol-5-yl)-7a-methyl-1-methyleneoctahydro-1H-inden-4-yl)methanol]"
14,+++,"CC1(C)CCC2=C1CC[C@H]([C@@]1(C)Cc3cnoc3C[C@@H]1CO)[C@H]2CO [compound 23, ((5R,6S)-5-((4R,5S)-4-(hydroxymethyl)-1,1-dimethyl-2,3,4,5,6,7-hexahydro-1H-inden-5-yl)-5-methyl-4,5,6,7-tetrahydrobenzo[d]isoxazol-6-yl)methanol]"
15,++,"C=C1CC[C@H]2[C@H](CO)[C@@H]([C@@]3(C)Cc4sc(C)nc4C[C@@H]3CO)CC[C@]12C [compound 24, ((3aS,4R,5S,7aS)-5-((5S,6R)-5-(hydroxymethyl)-2,6-dimethyl-4,5,6,7-tetrahydrobenzo[d]thiazol-6-yl)-7a-methyl-1-methyleneoctahydro-1H-inden-4-yl)methanol]"
16,++,"C[C@]1([C@H]2CC[C@]3(C)C(c4ccccc4)=CC[C@H]3[C@@H]2CO)CC[C@H](O)C[C@@H]1CO [compound 25, (1S,3S,4R)-3-(hydroxymethyl)-4-((3aS,6S,7R,7aS)-7-(hydroxymethyl)-3a-methyl-3-phenyl-3a,4,5,6,7,7a-hexahydro-1H-inden-6-yl)-4-methylcyclohexanol]"
17,−,"C[C@]1([C@H]2CC[C@@]3(C)[C@@H](CC[C@@]3(O)c3ccccc3)[C@@H]2CO)CC[C@H](O)C[C@@H]1CO [compound 26, (1S,3aS,4R,5S,7aS)-5-((1R,2S,4S)-4-hydroxy-2-(hydroxymethyl)-1-methylcyclohexyl)-4-(hydroxymethyl)-7a-methyl-1-phenyloctahydro-1H-inden-1-ol]"
18,++,"C#C[C@]1(O)CC[C@H]2[C@H](CO)[C@@H]([C@@]3(C)CC[C@H](O)C[C@@H]3CO)CC[C@@]21C [compound 28, (1R,3aS,4R,5S,7aS)-1-ethynyl-5-((1R,2S,4S)-4-hydroxy-2-(hydroxymethyl)-1-methylcyclohexyl)-4-(hydroxymethyl)-7a-methyloctahydro-1H-inden-1-ol]"
